This data set in a line: Evaluation of oxidation stability (QH residual rate after storage, QH ratio by HPLC). The class given is physicochemical. As for the experimental part:
The weight ratio of reduced coenzyme Q10 to total coenzyme Q10 (namely, reduced coenzyme Q10/(oxidized coenzyme Q10+reduced coenzyme Q10)) is defined as “QH ratio”. The QH ratio was determined by the following HPLC analysis. For the evaluation of oxidation stability, a rate of the change in the QH ratio at the end of the evaluation from that at the beginning of the evaluation was defined as “QH residual rate”, and the QH residual rate determined by the following expression was used as a measure of oxidation stability.
QH residual rate (%)=100×QH ratio at the end of the evaluation/QH ratio at the beginning of the evaluation […]
In a glass vial (volume 33 ml), 0.1 g of the QH Form I crystal was placed. […] The glass vial was sealed, and stored under a temperature of 40° C. and a relative humidity of 75% for 2 weeks, after which the QH residual rate was determined.
In a glass vial, 0.2 g of the QH Form I crystal was placed. The glass vial was opened, and stored under a temperature of 40° C. and a relative humidity of 11% for 2 weeks, after which the QH residual rate was determined.
In a glass vial (volume 33 ml), 0.1 g of the QH Form I crystal was placed. […] The glass vial was sealed, and stored under a temperature of 25° C. and a relative humidity of 60% for 4 weeks, after which the QH residual rate was determined. […]

In the case of `COc1c(O)c(C)c(C/C=C(\C)CC/C=C(\C)CC/C=C(\C)CC/C=C(\C)CC/C=C(\C)CC/C=C(\C)CC/C=C(\C)CC/C=C(\C)CC/C=C(\C)CCC=C(C)C)c(O)c1OC` [Comparative Example 1, reduced coenzyme Q10], for the setting “0.2 g QH Form I crystal without water, opened glass vial, 40° C., relative humidity 11%, 2 weeks”, the QH residual rate stood at 34.9%.
As to `COc1c(O)c(C)c(C/C=C(\C)CC/C=C(\C)CC/C=C(\C)CC/C=C(\C)CC/C=C(\C)CC/C=C(\C)CC/C=C(\C)CC/C=C(\C)CC/C=C(\C)CCC=C(C)C)c(O)c1OC` [Comparative Example 2, reduced coenzyme Q10], the QH residual rate (0.1 g QH Form I crystal, with aqueous solution of Table 3 or without (comparative), sealed glass vial, 25° C., relative humidity 60%, 4 weeks) is given as 33.3%.
